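Tested at 5 concentrations; 48 h exposure; 96-well plates; endpoints linearly interpolated, else capped at highest concentration. Here, GI50 denotes the concentration required for 50% inhibition of growth.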 The source made the active and inactive calls. Rule as the data show it: active = GI50 up to about 1.1 µM and inactive = higher.

Assay in all cases: growth of human tumour cells (NCI), 48 h
For experiment [1], the system named is A498.
Experiment [2] relates to ACHN.
Experiment [3] deals with HCT-116.
In experiment [4] the test system is RPMI-8226.
For experiment [5], the system named is HOP-62.
The test system of experiment [6] is NCI/ADR-RES.
In experiment [7] the test system is MCF7.
The subject of experiment [8] is MOLT-4.
The subject of experiment [9] is HCC 2998.
The test system of experiment [10] is HT-29.
The subject of experiment [11] is OVCAR-4.
The test system of experiment [12] is COLO 205.
Experiment [13] has as its system NCI-H226.
For experiment [14], the system named is HOP-92.
Experiment [15] has as its system MDA-MB-435.
Experiment [16] deals with SK-MEL-5.
Experiment [17] has as its system Malme-3M.
Experiment [18] relates to SF-295.
The test system of experiment [19] is DU-145.
Experiment [20] deals with U-251.

`COc1ccc(C(C)NNC(=O)c2ccncc2)cc1OC` (stereo not given): the GI50 in experiment [1], in experiment [2], in [3], in [4], in experiment [5] and in experiment [6] was > 100 µM (inactive) in each case. Moreover, the GI50 in experiment [7], in experiment [8], in experiment [9], in experiment [10], in [11] and in experiment [12] was > 100 µM (inactive) each time. The GI50 in experiment [13], in experiment [14], in experiment [15], in experiment [16], in [17] and in [18] was > 100 µM (inactive) in each case. The GI50 in experiment [19] and in experiment [20] was > 100 µM (inactive) in each case.

Take `C=C1C(=O)OC2C(C)C3C=CC(=O)[C@@]3(C)C(OC(=O)/C(C)=C/C)C1[C@@H]2OC(C)=O` (stereo not given in full): the GI50 in [1] is 1.49 µM (inactive); in experiment [2], 0.589 µM (active); in experiment [3], 0.319 µM (active); in experiment [4], 0.486 µM (active); in [5] it was 1.25 µM (inactive); in experiment [6] it was 0.237 µM (active). For the same compound, the GI50 in [7] was 0.458 µM (active); in experiment [8] it was 0.334 µM (active); in [9] it was 1.75 µM (inactive); in experiment [10], 0.486 µM (active); in experiment [11], 0.822 µM (active); in experiment [12] it was 0.333 µM (active). The GI50 is 1.73 µM (inactive) in [13]; 0.551 µM (active) in experiment [14]; 0.267 µM (active) in experiment [15]; 1.46 µM (inactive) in experiment [16]; 0.221 µM (active) in experiment [17]; 1.43 µM (inactive) in experiment [18]. In addition, the results for the GI50 in experiment [19] and in experiment [20] were 1.36 µM (inactive) and 1.15 µM (inactive), respectively.

With `O=C(NO)NCCCl`, the GI50 in experiment [1] was 49.5 µM (inactive); in experiment [2], > 100 µM (inactive); in experiment [3], > 100 µM (inactive); in [4], > 100 µM (inactive); in experiment [5] it was > 100 µM (inactive); in experiment [6], > 100 µM (inactive). Also, the GI50 in experiment [7], in [8], in experiment [9], in [10], in experiment [11] and in experiment [12] was > 100 µM (inactive) in each case. Moreover, the GI50 in experiment [13], in experiment [14], in experiment [15], in [16], in [17] and in experiment [18] was > 100 µM (inactive) each time. In addition, the GI50 in experiment [19] and in experiment [20] was > 100 µM (inactive) throughout.

For the compound `Cc1sc2nc3n(c(=O)c2c1C)N=CN(c1ccccc1)C3`, the GI50 was > 100 µM (inactive) in experiment [1]; 59.3 µM (inactive) in experiment [2]; > 100 µM (inactive) in experiment [3]; > 100 µM (inactive) in [4]; 20.4 µM (inactive) in experiment [5]; > 100 µM (inactive) in experiment [6]. Also, the GI50 in experiment [7] was > 100 µM (inactive); in experiment [8] it was > 100 µM (inactive); in experiment [9], 60.5 µM (inactive); in experiment [10] it was > 100 µM (inactive); in experiment [11], 30.1 µM (inactive); in [12], > 100 µM (inactive). The GI50 is > 100 µM (inactive) in experiment [13]; 23.7 µM (inactive) in experiment [14]; > 100 µM (inactive) in [15]; > 100 µM (inactive) in experiment [16]; 32 µM (inactive) in experiment [17]; 84.9 µM (inactive) in experiment [18]. Moreover, the GI50 in [19] was > 100 µM (inactive); in experiment [20] it was 52.4 µM (inactive).

As to `O=C1c2ccccc2C(=O)c2c1nc1ccccc1c2-c1cncc(-c2c3c(nc4ccccc24)C(=O)c2ccccc2C3=O)c1`, the GI50 in experiment [1] was 9.18 µM (inactive); in experiment [2] it was 4.08 µM (inactive); in experiment [3] it was 4.17 µM (inactive); in experiment [4], 0.361 µM (active); in [5], 6.56 µM (inactive); in experiment [6], 4.13 µM (inactive). The GI50 in [7] was 5.19 µM (inactive); in experiment [8], 0.418 µM (active); in experiment [9], 18.5 µM (inactive); in experiment [10], 8.49 µM (inactive); in [11], 30.9 µM (inactive); in [12], 2.85 µM (inactive). Further, the GI50 was 5.87 µM (inactive) in [13]; 4.32 µM (inactive) in experiment [14]; 1.83 µM (inactive) in experiment [15]; 1.29 µM (inactive) in experiment [16]; 11.9 µM (inactive) in experiment [17]; 8.32 µM (inactive) in experiment [18]. Also, the GI50 in experiment [19] was 4.09 µM (inactive); in [20], 8 µM (inactive).

Take `C=C1CC2(CC(c3ccccc3Cl)OC(c3ccccc3Cl)C2)OC1=O` (stereo not given): the GI50 in experiment [1] was 9.73 µM (inactive); in experiment [2] it was 4.51 µM (inactive); in experiment [3] it was 1.76 µM (inactive); in [4] it was 0.752 µM (active); in [5], 8.05 µM (inactive); in experiment [6] it was 3.57 µM (inactive). Moreover, the GI50 in [7] is 2.11 µM (inactive); in [8], 2.4 µM (inactive); in experiment [9] it was 3.52 µM (inactive); in experiment [10], 2.55 µM (inactive); in experiment [11], 3.9 µM (inactive); in [12] it was 2.31 µM (inactive). The GI50 was 8.69 µM (inactive) in experiment [13]; 1.87 µM (inactive) in experiment [14]; 1.8 µM (inactive) in [15]; 4.3 µM (inactive) in experiment [16]; 3.57 µM (inactive) in [17]; 8.97 µM (inactive) in experiment [18]. The GI50 in experiment [19] was 6.87 µM (inactive); in experiment [20], 8.07 µM (inactive).

`C=CC(C1=CC(=O)C(OC)=CC1=O)c1ccccc1` (stereo not given) [4-METHOXYDALBERGIONE]: the GI50 was > 51.2 µM (inactive) in [1]; 14.3 µM (inactive) in experiment [2]; 8.81 µM (inactive) in experiment [3]; 9.64 µM (inactive) in [4]; 16.6 µM (inactive) in experiment [5]; 18.5 µM (inactive) in experiment [6]. The GI50 in [7] was 7.48 µM (inactive); in experiment [8] it was 2.16 µM (inactive); in experiment [9], 16.7 µM (inactive); in experiment [10], 19.3 µM (inactive); in experiment [11], 14.7 µM (inactive); in experiment [12], 18.9 µM (inactive). Further, the GI50 in experiment [13] was 17.1 µM (inactive); in experiment [14], 4.98 µM (inactive); in [15], 13.8 µM (inactive); in [16], 16.3 µM (inactive); in experiment [17] it was 14.5 µM (inactive); in experiment [18] it was 12.2 µM (inactive). Besides, the GI50 in experiment [19] was 16.5 µM (inactive); in [20], 15.6 µM (inactive).

For the compound `c1ccc2c(c1)CCN1CCc3ccccc3C1C2` (stereo not given), the GI50 in [1] was > 100 µM (inactive); in experiment [2], 77.6 µM (inactive); in experiment [3] it was 17.5 µM (inactive); in experiment [4], 43 µM (inactive); in [5], 56.2 µM (inactive); in experiment [6] it was 65.9 µM (inactive). Also, the GI50 was > 100 µM (inactive) in [7]; 40.4 µM (inactive) in experiment [8]; 31.4 µM (inactive) in [9]; 28.2 µM (inactive) in experiment [10]; > 100 µM (inactive) in experiment [11]; 38 µM (inactive) in [12]. The GI50 in experiment [13] is 23.6 µM (inactive); in experiment [14], 31 µM (inactive); in experiment [15] it was 33 µM (inactive); in [16] it was 17.7 µM (inactive); in experiment [17], > 100 µM (inactive); in [18], 26.9 µM (inactive). In addition, the GI50 in experiment [19] is > 100 µM (inactive); in experiment [20], 38.4 µM (inactive).

As to `CCSc1nnc(Sc2c3ccccc3nc3ccccc23)s1`, the GI50 is 23.8 µM (inactive) in experiment [1]; 5.19 µM (inactive) in [2]; 7.41 µM (inactive) in experiment [3]; 3.91 µM (inactive) in [4]; > 58.6 µM (inactive) in [5]; 19.7 µM (inactive) in experiment [6]. Besides, the GI50 is 3.92 µM (inactive) in experiment [7]; 2.63 µM (inactive) in experiment [8]; 11.8 µM (inactive) in [9]; 7.67 µM (inactive) in experiment [10]; 16.9 µM (inactive) in experiment [11]; 2.78 µM (inactive) in experiment [12]. Moreover, the GI50 was 33.7 µM (inactive) in [13]; 11.7 µM (inactive) in experiment [14]; 9.84 µM (inactive) in experiment [15]; 15.6 µM (inactive) in experiment [16]; 7.01 µM (inactive) in experiment [17]; 99.3 µM (inactive) in experiment [18]. Moreover, the GI50 in experiment [19] is 15.2 µM (inactive); in experiment [20] it was 23.3 µM (inactive).

The record behind these values is ChEMBL document CHEMBL1201862, “PubChem BioAssay data set” (2004).
